Assay results as given in ChEMBL document CHEMBL5291721, “A preclinical secondary pharmacology resource illuminates target-adverse drug reaction associations of marketed drugs” (Nat Commun, 2023).
Where a SMILES comes first, the peptide text is derived from it. [ ]: non-standard residue; d: D form. pGlu = O=C1CC[C@@H](C(=O)O)N1; Thz = O=C(O)[C@@H]1CSCN1

Assays:
[1] = molecular target: T1, Alpha-2C adrenergic receptor (Homo sapiens, UniProt P18825); type: functional
T1 sequence (P18825 whole entry): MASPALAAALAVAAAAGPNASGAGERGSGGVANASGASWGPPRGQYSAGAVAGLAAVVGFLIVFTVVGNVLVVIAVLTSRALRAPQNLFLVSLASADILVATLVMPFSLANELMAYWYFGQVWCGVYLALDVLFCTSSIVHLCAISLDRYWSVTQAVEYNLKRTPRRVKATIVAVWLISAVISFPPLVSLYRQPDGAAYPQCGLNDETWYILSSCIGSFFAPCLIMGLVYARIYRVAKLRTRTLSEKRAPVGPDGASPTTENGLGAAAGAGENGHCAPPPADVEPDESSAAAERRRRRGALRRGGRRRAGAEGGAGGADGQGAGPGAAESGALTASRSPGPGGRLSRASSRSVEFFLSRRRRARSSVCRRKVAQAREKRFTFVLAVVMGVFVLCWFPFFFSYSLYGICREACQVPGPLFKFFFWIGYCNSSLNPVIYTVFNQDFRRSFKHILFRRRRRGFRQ

[2] = molecular target: T2, Muscarinic acetylcholine receptor M2 (Homo sapiens, UniProt P08172); type: functional, cell-based
T2 sequence (P08172 whole entry): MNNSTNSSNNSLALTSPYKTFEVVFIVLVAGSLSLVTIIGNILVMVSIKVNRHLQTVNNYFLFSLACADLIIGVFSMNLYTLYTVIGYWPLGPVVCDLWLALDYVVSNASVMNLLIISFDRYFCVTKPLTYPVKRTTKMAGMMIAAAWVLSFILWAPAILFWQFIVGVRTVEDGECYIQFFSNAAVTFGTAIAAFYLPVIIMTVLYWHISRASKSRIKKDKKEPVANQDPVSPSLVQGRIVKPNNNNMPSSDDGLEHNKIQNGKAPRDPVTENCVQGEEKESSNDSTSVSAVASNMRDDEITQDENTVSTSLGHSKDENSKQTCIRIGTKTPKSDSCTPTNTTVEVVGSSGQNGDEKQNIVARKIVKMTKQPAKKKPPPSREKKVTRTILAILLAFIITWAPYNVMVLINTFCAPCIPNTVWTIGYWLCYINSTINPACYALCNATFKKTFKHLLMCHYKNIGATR

[3] = molecular target: Gamma-aminobutyric acid receptor subunit alpha-1 (Rattus norvegicus, UniProt P62813); type: functional
[4] = molecular target: T3, 5-hydroxytryptamine receptor 2C (Homo sapiens, UniProt P28335)
T3 sequence (P28335 whole entry): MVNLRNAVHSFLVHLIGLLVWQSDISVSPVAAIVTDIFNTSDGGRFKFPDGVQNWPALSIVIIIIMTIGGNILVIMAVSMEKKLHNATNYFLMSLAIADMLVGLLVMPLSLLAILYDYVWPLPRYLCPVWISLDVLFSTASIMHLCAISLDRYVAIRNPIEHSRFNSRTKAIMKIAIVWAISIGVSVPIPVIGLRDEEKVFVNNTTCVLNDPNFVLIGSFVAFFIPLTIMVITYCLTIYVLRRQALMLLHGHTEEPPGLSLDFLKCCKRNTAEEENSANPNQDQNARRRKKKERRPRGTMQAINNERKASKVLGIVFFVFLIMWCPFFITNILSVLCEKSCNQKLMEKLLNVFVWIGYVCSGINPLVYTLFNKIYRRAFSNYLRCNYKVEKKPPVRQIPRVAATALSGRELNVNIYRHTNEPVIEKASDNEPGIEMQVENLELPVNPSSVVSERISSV

[5] = molecular target: Melanocortin receptor 3 (Homo sapiens, UniProt P41968)
[6] = molecular target: 3',5'-cyclic-AMP phosphodiesterase 4D (Homo sapiens, UniProt Q08499); type: functional
[7] = molecular target: T4, Progesterone receptor (Homo sapiens, UniProt P06401); type: functional
T4 sequence (P06401 whole entry): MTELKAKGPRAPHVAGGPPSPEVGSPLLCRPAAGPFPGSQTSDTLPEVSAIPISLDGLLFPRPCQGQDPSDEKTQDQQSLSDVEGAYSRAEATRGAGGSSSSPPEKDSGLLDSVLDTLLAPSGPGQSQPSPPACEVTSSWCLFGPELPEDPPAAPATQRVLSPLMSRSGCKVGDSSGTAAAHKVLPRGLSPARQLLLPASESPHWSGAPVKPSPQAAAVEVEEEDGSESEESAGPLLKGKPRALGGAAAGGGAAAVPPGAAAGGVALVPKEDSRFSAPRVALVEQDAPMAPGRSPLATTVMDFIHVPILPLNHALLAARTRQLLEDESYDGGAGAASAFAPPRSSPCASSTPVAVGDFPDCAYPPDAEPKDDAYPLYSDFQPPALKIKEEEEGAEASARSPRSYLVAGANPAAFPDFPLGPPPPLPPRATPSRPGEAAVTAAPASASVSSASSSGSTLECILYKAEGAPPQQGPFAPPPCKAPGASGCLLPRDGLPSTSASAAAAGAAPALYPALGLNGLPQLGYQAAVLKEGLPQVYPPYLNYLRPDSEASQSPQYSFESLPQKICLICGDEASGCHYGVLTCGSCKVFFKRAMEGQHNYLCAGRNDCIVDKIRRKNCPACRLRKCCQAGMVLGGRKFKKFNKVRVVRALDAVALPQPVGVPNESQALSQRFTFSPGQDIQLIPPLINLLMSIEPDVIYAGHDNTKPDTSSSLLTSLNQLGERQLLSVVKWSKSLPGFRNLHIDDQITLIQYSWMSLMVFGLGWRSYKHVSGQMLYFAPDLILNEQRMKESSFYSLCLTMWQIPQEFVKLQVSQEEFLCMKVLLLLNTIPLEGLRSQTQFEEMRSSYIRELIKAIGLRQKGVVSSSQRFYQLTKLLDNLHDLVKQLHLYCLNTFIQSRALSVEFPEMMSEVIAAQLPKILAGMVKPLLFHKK

[8] = molecular target: cGMP-inhibited 3',5'-cyclic phosphodiesterase 3A (Homo sapiens, UniProt Q14432); type: functional
Further: assay procedure not described here.

3',5'-cyclic-AMP phosphodiesterase 4D, sequence (Q08499 whole entry): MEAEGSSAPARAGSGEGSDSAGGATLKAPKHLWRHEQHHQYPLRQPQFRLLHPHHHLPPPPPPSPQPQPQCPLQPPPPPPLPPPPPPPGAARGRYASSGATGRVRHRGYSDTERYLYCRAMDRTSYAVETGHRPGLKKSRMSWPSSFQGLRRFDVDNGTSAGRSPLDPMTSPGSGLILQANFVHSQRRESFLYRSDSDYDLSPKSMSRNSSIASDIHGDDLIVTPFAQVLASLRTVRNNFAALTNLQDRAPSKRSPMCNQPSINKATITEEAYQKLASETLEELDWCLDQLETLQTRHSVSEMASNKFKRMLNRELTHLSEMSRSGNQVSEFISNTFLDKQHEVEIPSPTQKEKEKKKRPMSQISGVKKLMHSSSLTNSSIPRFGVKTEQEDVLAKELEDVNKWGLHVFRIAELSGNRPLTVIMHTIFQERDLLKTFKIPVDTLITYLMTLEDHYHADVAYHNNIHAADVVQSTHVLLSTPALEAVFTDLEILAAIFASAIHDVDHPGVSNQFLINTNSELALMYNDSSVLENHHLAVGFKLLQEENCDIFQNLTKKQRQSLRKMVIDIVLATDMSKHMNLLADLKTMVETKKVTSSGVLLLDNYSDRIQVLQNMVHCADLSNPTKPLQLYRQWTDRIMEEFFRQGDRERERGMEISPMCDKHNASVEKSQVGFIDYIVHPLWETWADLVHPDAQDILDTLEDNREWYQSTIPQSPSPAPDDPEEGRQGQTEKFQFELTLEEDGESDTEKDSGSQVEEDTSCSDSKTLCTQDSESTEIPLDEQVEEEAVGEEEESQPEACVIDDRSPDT
Gamma-aminobutyric acid receptor subunit alpha-1, sequence (P62813 whole entry): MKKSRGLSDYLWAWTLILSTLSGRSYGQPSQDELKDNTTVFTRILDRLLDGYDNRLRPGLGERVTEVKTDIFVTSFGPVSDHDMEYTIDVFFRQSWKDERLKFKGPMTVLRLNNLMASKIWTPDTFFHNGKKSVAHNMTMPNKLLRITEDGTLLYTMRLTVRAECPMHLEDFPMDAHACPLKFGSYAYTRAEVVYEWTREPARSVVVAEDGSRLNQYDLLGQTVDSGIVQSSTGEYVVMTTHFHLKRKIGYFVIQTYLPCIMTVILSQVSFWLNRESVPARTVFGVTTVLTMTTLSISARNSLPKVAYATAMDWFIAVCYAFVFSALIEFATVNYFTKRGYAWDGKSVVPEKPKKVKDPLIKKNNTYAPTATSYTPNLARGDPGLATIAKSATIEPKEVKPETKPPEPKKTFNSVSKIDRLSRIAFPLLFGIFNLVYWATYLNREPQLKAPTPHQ
cGMP-inhibited 3',5'-cyclic phosphodiesterase 3A, sequence (Q14432 whole entry): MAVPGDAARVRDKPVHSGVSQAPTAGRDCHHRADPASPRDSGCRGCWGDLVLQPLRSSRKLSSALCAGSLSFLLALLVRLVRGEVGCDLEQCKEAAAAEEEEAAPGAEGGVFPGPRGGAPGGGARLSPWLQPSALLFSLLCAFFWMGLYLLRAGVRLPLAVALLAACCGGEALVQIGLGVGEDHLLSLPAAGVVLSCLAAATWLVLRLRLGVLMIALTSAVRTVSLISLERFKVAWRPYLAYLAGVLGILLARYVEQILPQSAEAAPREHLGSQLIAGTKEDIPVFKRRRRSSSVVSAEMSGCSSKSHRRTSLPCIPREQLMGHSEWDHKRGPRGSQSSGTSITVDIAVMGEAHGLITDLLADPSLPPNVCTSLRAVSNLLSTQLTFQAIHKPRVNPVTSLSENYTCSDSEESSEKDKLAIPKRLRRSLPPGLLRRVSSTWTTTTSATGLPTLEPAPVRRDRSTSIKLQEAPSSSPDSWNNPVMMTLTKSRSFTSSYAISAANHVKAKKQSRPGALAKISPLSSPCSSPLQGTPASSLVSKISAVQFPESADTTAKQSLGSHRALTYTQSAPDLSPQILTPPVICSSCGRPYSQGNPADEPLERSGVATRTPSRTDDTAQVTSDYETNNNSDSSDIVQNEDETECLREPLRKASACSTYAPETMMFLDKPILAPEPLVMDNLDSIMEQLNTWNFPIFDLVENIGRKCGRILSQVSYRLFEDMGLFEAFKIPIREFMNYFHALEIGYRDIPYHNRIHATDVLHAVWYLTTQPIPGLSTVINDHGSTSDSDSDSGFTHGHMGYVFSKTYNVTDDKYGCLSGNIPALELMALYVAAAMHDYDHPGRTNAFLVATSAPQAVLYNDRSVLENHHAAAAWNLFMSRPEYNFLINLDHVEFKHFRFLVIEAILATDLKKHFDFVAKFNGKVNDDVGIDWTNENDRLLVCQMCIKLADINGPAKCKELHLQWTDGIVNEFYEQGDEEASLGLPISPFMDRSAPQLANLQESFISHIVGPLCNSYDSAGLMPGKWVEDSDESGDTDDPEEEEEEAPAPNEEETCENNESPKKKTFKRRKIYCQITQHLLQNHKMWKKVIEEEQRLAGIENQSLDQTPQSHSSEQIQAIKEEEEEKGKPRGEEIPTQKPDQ
Melanocortin receptor 3, sequence (P41968 whole entry): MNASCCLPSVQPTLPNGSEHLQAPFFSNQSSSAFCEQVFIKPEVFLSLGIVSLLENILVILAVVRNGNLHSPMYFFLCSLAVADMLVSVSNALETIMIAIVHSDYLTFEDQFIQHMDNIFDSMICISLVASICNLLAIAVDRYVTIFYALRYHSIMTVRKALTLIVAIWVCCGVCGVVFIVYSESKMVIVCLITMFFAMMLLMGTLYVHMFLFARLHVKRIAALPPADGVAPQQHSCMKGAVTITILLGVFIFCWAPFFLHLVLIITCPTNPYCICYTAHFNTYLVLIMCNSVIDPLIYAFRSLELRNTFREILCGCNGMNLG

Row | SMILES | AC50 [1] [µM] | AC50 [2] [µM] | AC50 [3] [µM] | AC50 [4] [µM] | AC50 [5] [µM] | AC50 [6] [µM] | AC50 [7] [µM] | AC50 [8] [µM]
1 | CCc1nc(N)nc(N)c1-c1ccc(Cl)cc1 [PYRIMETHAMINE] | > 30 | > 10 | > 10 | > 30 | > 10 | 12 | > 10 | > 30
2 | O=c1[nH]c2ccccc2n1CCCN1CCN(C(c2ccccc2)c2ccccc2)CC1 [OXATOMIDE] | 0.89 | > 30 | > 30 | 1.7 | > 30 | > 30 | > 30 | > 30
3 | O=C1CC[C@@H](C(=O)N2CSC[C@H]2C(=O)O)N1 [PIDOTIMOD] ([pGlu]-[Thz]-OH) | > 30 | > 30 | > 30 | > 30 | > 30 | > 30 | > 30 | > 30
4 | CC1=C(/C=C/C(C)=C/C=C/C(C)=C/CO)C(C)(C)CCC1 [RETINOL] | > 10 | > 10 | > 10 | > 30 | > 10 | > 30 | > 30 | > 30
5 | NS(=O)(=O)c1cc2c(cc1Cl)N=C(CSCc1ccccc1)NS2(=O)=O [BENZTHIAZIDE] | 1.5 | > 10 | > 10 | > 30 | > 10 | > 30 | > 30 | > 30
6 | COc1ccc(CN2CCN(C(c3ccc(F)cc3)c3ccc(F)cc3)CC2)c(OC)c1OC [LOMERIZINE] | 4.2 | > 30 | > 30 | 16 | > 30 | > 30 | > 30 | > 30
7 | Oc1ccc(CCNCCCCCCNCCc2ccccc2)cc1O [DOPEXAMINE] | 1.2 | > 30 | > 30 | > 30 | > 30 | 29 | > 30 | > 30
8 | CCN1CCCC1CNC(=O)c1cc(S(=O)(=O)CC)ccc1OC (stereo unspecified) [SULTOPRIDE] | 4.5 | > 30 | > 30 | > 30 | > 30 | > 30 | > 30 | > 30
9 | COc1cc(C(=O)NC2CCCNC2)cc(OC)c1OC (stereo unspecified) [TROXIPIDE] | > 30 | > 30 | > 30 | > 30 | > 30 | > 30 | > 30 | > 30
10 | CC(C(=O)O)c1ccc2c(c1)CC(=O)c1ccccc1S2 (stereo unspecified) [ZALTOPROFEN] | > 30 | > 30 | > 30 | > 30 | > 30 | 24 | > 30 | > 30
11 | NNC(=O)c1ccncc1 [ISONIAZID] | > 30 | > 30 | > 30 | > 30 | > 30 | > 30 | > 30 | > 30
12 | CC(c1cc2ccccc2s1)N(O)C(N)=O (stereo unspecified) [ZILEUTON] | > 10 | > 10 | > 10 | > 30 | > 10 | > 30 | > 30 | > 30
13 | CCc1cc2c(s1)-n1c(C)nnc1CN=C2c1ccccc1Cl [ETIZOLAM] | > 30 | > 30 | 0.0091 | > 30 | > 30 | 19 | > 30 | > 30
14 | CC(C)[C@@H](C)/C=C/[C@@H](C)[C@H]1CC[C@H]2/C(=C/C=C3\C[C@@H](O)CC[C@@H]3C)CCC[C@]12C [DIHYDROTACHYSTEROL] | > 10 | > 10 | > 10 | > 30 | > 10 | > 30 | 11.2 | > 30
15 | CCCN1CCCC[C@H]1C(=O)Nc1c(C)cccc1C [ROPIVACAINE] | > 30 | > 30 | > 30 | > 30 | > 30 | > 30 | > 30 | > 30
16 | CC/C=C\C/C=C\C/C=C\C/C=C\C/C=C\CCCC(=O)OCC [ICOSAPENT ETHYL] | > 30 | > 30 | > 30 | > 30 | > 30 | 12 | 3.5 | > 30
17 | Cc1cc(C)nc(NS(=O)(=O)c2ccc(N)cc2)n1 [SULFAMETHAZINE] | > 30 | > 10 | > 10 | > 30 | > 10 | > 30 | > 10 | > 30
18 | CCCC(C)(COC(N)=O)COC(N)=O [MEPROBAMATE] | > 30 | > 10 | > 10 | > 30 | > 10 | > 30 | > 10 | > 30
19 | CCCN(CCC)S(=O)(=O)c1ccc(C(=O)O)cc1 [PROBENECID] | > 10 | > 10 | > 10 | > 30 | > 10 | > 30 | > 10 | > 30
20 | CC(=O)c1ccc(S(=O)(=O)NC(=O)NC2CCCCC2)cc1 [ACETOHEXAMIDE] | > 10 | > 10 | > 10 | > 30 | > 10 | > 30 | > 10 | > 30
21 | OC[C@H]1O[C@@H](Oc2cc(O)cc(/C=C/c3ccc(O)cc3)c2)[C@H](O)[C@@H](O)[C@@H]1O [PICEID] | > 30 | > 30 | > 30 | > 30 | > 30 | > 30 | > 30 | > 30
22 | O=C(O)CCNC(=O)c1ccc(/N=N/c2ccc(O)c(C(=O)O)c2)cc1 [BALSALAZIDE] | > 30 | > 30 | > 30 | > 30 | > 30 | > 30 | > 30 | > 30
